Experimental data reported in ChEMBL document CHEMBL2331486, “Identification of diaryl 5-amino-1,2,4-oxadiazoles as tubulin inhibitors: the special case of 3-(2-fluorophenyl)-5-(4-methoxyphenyl)amino-1,2,4-oxadiazole” (Bioorg Med Chem Lett, 2013).
The source made the active and inactive calls. The calls are words filed in the database; no cut-off is given here.

Columns and labels:
Tubulin = experiment: Inhibition of tubulin (unknown origin) assembly after 20 mins by turbidimetric analysis; format: protein-complex assay, Homo sapiens
Tubulin (Homo sapiens) [1] = target: T1, Tubulin (Homo sapiens) (UniProt P68371+Q9H4B7+P0DPH7+P68366+Q13509+Q71U36+P04350+Q3ZCM7+P07437+P68363+Q9BQE3+Q6PEY2+Q13885+Q9BVA1+Q9BUF5); settings: at 1 µM
Description: Displacement of [3H]colchicine from tubulin (unknown origin) at 1 uM after 10 mins

Tubulin (Homo sapiens) [2] = target: T1, Tubulin (Homo sapiens); settings: at 5 µM
Description: Displacement of [3H]colchicine from tubulin (unknown origin) at 5 uM after 10 mins

T47D = experiment: Cytotoxicity against human T47D cells; format: functional
MDA-MB-468 = experiment: Cytotoxicity against human MDA-MB-468 cells; format: functional
MDA-MB-231 [3] = experiment: Cytotoxicity against human MDA-MB-231 cells; format: functional
[4] = Cytotoxicity against human Hs 578T cells; format: functional
DU-145 [5] = experiment: Cytotoxicity against human DU145 cells; format: functional
MCF7 = experiment: Cytotoxicity against human MCF7 cells; format: functional
TK-10 = experiment: Cytotoxicity against human TK10 cells; format: functional
UO-31 = experiment: Cytotoxicity against human UO31 cells; format: functional
PC-3 [6] = experiment: Cytotoxicity against human PC3 cells; format: functional
RXF 393 = experiment: Cytotoxicity against human RXF393 cells; format: functional
SN12C = experiment: Cytotoxicity against human SN12C cells; format: functional
ACHN = experiment: Cytotoxicity against human ACHN cells; format: functional
CAKI-1 = experiment: Cytotoxicity against human Caki1 cells; format: functional
SK-OV-3 = experiment: Cytotoxicity against human SKOV3 cells; format: functional
A498 = experiment: Cytotoxicity against human A498 cells; format: functional
OVCAR-4 = experiment: Cytotoxicity against human OVCAR4 cells; format: functional
OVCAR-5 = experiment: Cytotoxicity against human OVCAR5 cells; format: functional
OVCAR-8 = experiment: Cytotoxicity against human OVCAR8 cells; format: functional
IGROV-1 = experiment: Cytotoxicity against human IGROV1 cells; format: functional
OVCAR-3 = experiment: Cytotoxicity against human OVCAR3 cells; format: functional
UACC-257 = experiment: Cytotoxicity against human UACC257 cells; format: functional
UACC-62 = experiment: Cytotoxicity against human UACC62 cells; format: functional
SK-MEL-28 = experiment: Cytotoxicity against human SK-MEL-28 cells; format: functional
SK-MEL-5 = experiment: Cytotoxicity against human SK-MEL-5 cells; format: functional
MDA-MB-435 = experiment: Cytotoxicity against human MDA-MB-435 cells; format: functional
SK-MEL-2 = experiment: Cytotoxicity against human SK-MEL-2 cells; format: functional
SNB-75 = experiment: Cytotoxicity against human SNB75 cells; format: functional
U-251 = experiment: Cytotoxicity against human U251 cells; format: functional
Malme-3M = experiment: Cytotoxicity against human MALME-3M cells; format: functional
SF-539 = experiment: Cytotoxicity against human SF539 cells; format: functional
SNB-19 = experiment: Cytotoxicity against human SNB19 cells; format: functional
SF-268 = experiment: Cytotoxicity against human SF268 cells; format: functional
SF-295 = experiment: Cytotoxicity against human SF295 cells; format: functional
HT-29 = experiment: Cytotoxicity against human HT-29 cells; format: functional
KM12 = experiment: Cytotoxicity against human KM12 cells; format: functional
SW-620 = experiment: Cytotoxicity against human SW620 cells; format: functional
COLO 205 = experiment: Cytotoxicity against human COLO205 cells; format: functional
HCT-15 = experiment: Cytotoxicity against human HCT15 cells; format: functional
NCI-H460 = experiment: Cytotoxicity against human NCI-H460 cells; format: functional
NCI-H522 = experiment: Cytotoxicity against human NCI-H522 cells; format: functional
NCI-H226 = experiment: Cytotoxicity against human NCI-H226 cells; format: functional
NCI-H322M = experiment: Cytotoxicity against human NCI-H322M cells; format: functional
HOP-62 = experiment: Cytotoxicity against human HOP62 cells; format: functional
HOP-92 = experiment: Cytotoxicity against human HOP92 cells; format: functional
A549 = experiment: Cytotoxicity against human A549 cells; format: functional
[7] = Cytotoxicity against human EKVX cells; format: functional
MOLT-4 = experiment: Cytotoxicity against human MOLT4 cells; format: functional
RPMI-8226 = experiment: Cytotoxicity against human RPMI8226 cells; format: functional
K562 = experiment: Cytotoxicity against human K562 cells; format: functional
CCRF-CEM = experiment: Cytotoxicity against human CCRF-CEM cells; format: functional
HL-60(TB) = experiment: Cytotoxicity against human HL-60(TB) cells; format: functional
[8] = Growth inhibition of human NCI60 cells; format: functional
[9] = Growth inhibition of human KBV1a cells; format: functional; settings: pooled result: one value given for 5 cell lines, strains, targets or settings
MDA-MB-231 [10] = experiment: Growth inhibition of human MDA-MB-231 cells; format: functional
PANC-1 = experiment: Growth inhibition of human PANC1 cells; format: functional
HCT-116 = experiment: Growth inhibition of human HCT116 cells; format: functional
DU-145 [11] = experiment: Growth inhibition of human DU145 cells; format: functional
PC-3 [12] = experiment: Growth inhibition of human PC3 cells; format: functional

SMILES: CCOc1ccc(Nc2nc(-c3ccccc3F)no2)cc1
- IC50 (Tubulin): 1700 nM
- inhibition (Tubulin (Homo sapiens) [1]): 42%
- inhibition (Tubulin (Homo sapiens) [2]): 76%

SMILES: Fc1ccccc1Nc1nc(-c2ccccc2)no1
- inhibition (Tubulin (Homo sapiens) [1]): inactive
- inhibition (Tubulin (Homo sapiens) [2]): inactive

SMILES: CCOc1ccc(Nc2nc(-c3cccc(OC)c3OC)no2)cc1
- IC50 (Tubulin): 1800 nM
- inhibition (Tubulin (Homo sapiens) [1]): 20%
- inhibition (Tubulin (Homo sapiens) [2]): 56%

SMILES: COc1ccc(OC)c(-c2noc(Nc3ccc4c(c3)OCCO4)n2)c1
- IC50 (Tubulin): 3500 nM
- inhibition (Tubulin (Homo sapiens) [1]): 23%
- inhibition (Tubulin (Homo sapiens) [2]): 50%

SMILES: CCOC(=O)c1cccc(Nc2nc(-c3ccc(OC)cc3)no2)c1
- inhibition (Tubulin (Homo sapiens) [1]): inactive
- inhibition (Tubulin (Homo sapiens) [2]): inactive

SMILES: COc1cccc(-c2noc(Nc3ccc(C)cc3)n2)c1
- IC50 (Tubulin): 1500 nM
- inhibition (Tubulin (Homo sapiens) [1]): 56%
- inhibition (Tubulin (Homo sapiens) [2]): 85%

SMILES: CCc1ccc(Nc2nc(-c3ccccc3F)no2)cc1
- IC50 (Tubulin): 2700 nM
- inhibition (Tubulin (Homo sapiens) [1]): 41%
- inhibition (Tubulin (Homo sapiens) [2]): 73%

SMILES: COc1cccc(-c2noc(Nc3ccc4c(c3)OCCO4)n2)c1
- IC50 (Tubulin): 1900 nM
- inhibition (Tubulin (Homo sapiens) [1]): 38%
- inhibition (Tubulin (Homo sapiens) [2]): 76%

SMILES: COc1ccc(Nc2nc(-c3ccccc3F)no2)cc1
- GI50 (T47D): 15100 nM
- GI50 (MDA-MB-468): 1070 nM
- GI50 (MDA-MB-231 [3]): 676 nM
- GI50 [4]: 389 nM
- GI50 (DU-145 [5]): 141 nM
- GI50 (MCF7): 263 nM
- GI50 (TK-10): 832 nM
- GI50 (UO-31): 339 nM
- GI50 (PC-3 [6]): 447 nM
- GI50 (RXF 393): 155 nM
- GI50 (SN12C): 240 nM
- GI50 (ACHN): 490 nM
- GI50 (CAKI-1): 64.6 nM
- GI50 (SK-OV-3): 204 nM
- GI50 (A498): 229 nM
- GI50 (OVCAR-4): 776 nM
- GI50 (OVCAR-5): 724 nM
- GI50 (OVCAR-8): 209 nM
- GI50 (IGROV-1): 389 nM
- GI50 (OVCAR-3): 38 nM
- GI50 (UACC-257): 14100 nM
- GI50 (UACC-62): 53.7 nM
- GI50 (SK-MEL-28): 339 nM
- GI50 (SK-MEL-5): 151 nM
- GI50 (MDA-MB-435): 19.9 nM
- GI50 (SK-MEL-2): 39.8 nM
- GI50 (SNB-75): 141 nM
- GI50 (U-251): 60.3 nM
- GI50 (Malme-3M): 58.9 nM
- GI50 (SF-539): 107 nM
- GI50 (SNB-19): 87.1 nM
- GI50 (SF-268): 501 nM
- GI50 (SF-295): 61.7 nM
- GI50 (HT-29): 34.7 nM
- GI50 (KM12): 112 nM
- GI50 (SW-620): 47.9 nM
- GI50 (COLO 205): 126 nM
- GI50 (HCT-15): 85.1 nM
- GI50 (NCI-H460): 61.7 nM
- GI50 (NCI-H522): 19.9 nM
- GI50 (NCI-H226): 2190 nM
- GI50 (NCI-H322M): 501 nM
- GI50 (HOP-62): 135 nM
- GI50 (HOP-92): 3800 nM
- GI50 (A549): 91.2 nM
- GI50 [7]: 1510 nM
- GI50 (MOLT-4): 91.2 nM
- GI50 (RPMI-8226): 372 nM
- GI50 (K562): 30.9 nM
- GI50 (CCRF-CEM): 138 nM
- GI50 (HL-60(TB)): 25.7 nM
- GI50 [8]: 204 nM
- IC50 (Tubulin): 1100 nM
- inhibition (Tubulin (Homo sapiens) [1]): 68%
- inhibition (Tubulin (Homo sapiens) [2]): 91%

SMILES: CCc1ccc(Nc2nc(-c3cc(OC)ccc3OC)no2)cc1
- GI50 [8]: 575 nM
- IC50 (Tubulin): 1800 nM
- inhibition (Tubulin (Homo sapiens) [1]): 36%
- inhibition (Tubulin (Homo sapiens) [2]): 65%

SMILES: CCOc1ccc(Nc2nc(-c3cccc(OC)c3)no2)cc1
- GI50 [8]: 851 nM
- IC50 (Tubulin): 1600 nM
- inhibition (Tubulin (Homo sapiens) [1]): 37%
- inhibition (Tubulin (Homo sapiens) [2]): 78%

SMILES: COc1ccc(OC)c(Nc2nc(-c3cccc(OC)c3OC)no2)c1
- inhibition (Tubulin (Homo sapiens) [1]): inactive
- inhibition (Tubulin (Homo sapiens) [2]): inactive

SMILES: COc1ccc(-n2cnnc2-c2cc(OC)c(OC)c(OC)c2)cc1
- GI50 [9]: 464 nM

SMILES: Cc1ccc(Nc2nc(-c3ccccc3F)no2)cc1F
- GI50 [8]: 851 nM
- IC50 (Tubulin): 1600 nM
- inhibition (Tubulin (Homo sapiens) [1]): 52%
- inhibition (Tubulin (Homo sapiens) [2]): 81%

SMILES: COc1cccc(-c2noc(Nc3ccc(OC)c(Cl)c3)n2)c1
- GI50 [8]: 562 nM
- IC50 (Tubulin): 2300 nM
- inhibition (Tubulin (Homo sapiens) [1]): 36%
- inhibition (Tubulin (Homo sapiens) [2]): 73%

SMILES: CCc1ccc(Nc2nc(-c3cccc(OC)c3)no2)cc1
- IC50 (Tubulin): 1600 nM
- inhibition (Tubulin (Homo sapiens) [1]): 40%
- inhibition (Tubulin (Homo sapiens) [2]): 81%

SMILES: COc1ccc(Nc2nc(-c3ccccc3)no2)cc1Cl
- IC50 (Tubulin): 1700 nM
- inhibition (Tubulin (Homo sapiens) [1]): 52%
- inhibition (Tubulin (Homo sapiens) [2]): 80%

SMILES: COc1ccc(OC)c(-c2noc(Nc3ccc4c(c3)OCO4)n2)c1
- GI50 [8]: 6460 nM
- IC50 (Tubulin): 2500 nM
- inhibition (Tubulin (Homo sapiens) [1]): 21%
- inhibition (Tubulin (Homo sapiens) [2]): 52%

SMILES: Cc1ccc(Nc2nc(-c3ccccc3)no2)cc1
- IC50 (Tubulin): 1400 nM
- inhibition (Tubulin (Homo sapiens) [1]): 61%
- inhibition (Tubulin (Homo sapiens) [2]): 88%

SMILES: COc1ccc(OC)c(-c2noc(Nc3ccc(C)c(F)c3)n2)c1
- IC50 (Tubulin): 3500 nM
- inhibition (Tubulin (Homo sapiens) [1]): inactive
- inhibition (Tubulin (Homo sapiens) [2]): 53%

SMILES: CCOc1ccc(Nc2nc(-c3ccccc3)no2)cc1
- IC50 (Tubulin): 1200 nM
- inhibition (Tubulin (Homo sapiens) [1]): 49%
- inhibition (Tubulin (Homo sapiens) [2]): 82%

SMILES: COc1cccc(-c2noc(Nc3ccc(C)cc3)n2)c1OC
- GI50 [8]: 2630 nM
- IC50 (Tubulin): 3600 nM
- inhibition (Tubulin (Homo sapiens) [1]): 24%
- inhibition (Tubulin (Homo sapiens) [2]): 52%

SMILES: COc1cccc(-c2noc(Nc3ccc4c(c3)OCO4)n2)c1
- GI50 [8]: 1230 nM
- IC50 (Tubulin): 2200 nM
- inhibition (Tubulin (Homo sapiens) [1]): 40%
- inhibition (Tubulin (Homo sapiens) [2]): 76%

SMILES: COc1ccc(-n2cnnc2-c2cc(OC)c(OC)c(OC)c2)cc1F
- GI50 [9]: 556 nM

SMILES: COc1ccc(Nc2nc(-c3cccc(OC)c3)no2)cc1
- GI50 (MDA-MB-231 [10]): 9.77 nM
- GI50 (PANC-1): 9.77 nM
- GI50 (HCT-116): 9.77 nM
- GI50 (DU-145 [11]): 9.77 nM
- GI50 (PC-3 [12]): 9.77 nM
- IC50 (Tubulin): 1900 nM
- inhibition (Tubulin (Homo sapiens) [1]): 58%
- inhibition (Tubulin (Homo sapiens) [2]): 90%

SMILES: COc1ccc(Nc2nc(-c3cccc(OC)c3OC)no2)cc1
- GI50 [8]: 245 nM
- IC50 (Tubulin): 2600 nM
- inhibition (Tubulin (Homo sapiens) [1]): 31%
- inhibition (Tubulin (Homo sapiens) [2]): 68%

SMILES: COc1ccc(/C=C\c2cc(OC)c(OC)c(OC)c2)cc1O [COMBRETASTATIN A4]
- GI50 [8]: 14.8 nM

SMILES: Cc1ccc(Nc2nc(-c3ccccc3F)no2)cc1
- GI50 [8]: 603 nM
- IC50 (Tubulin): 1600 nM
- inhibition (Tubulin (Homo sapiens) [1]): 57%
- inhibition (Tubulin (Homo sapiens) [2]): 85%
